{"source": "paper PMC7994318", "about": "“Cancer-associated cells release citrate to support tumour metastatic progression” (Life Science Alliance, 2021)", "biological_target": "T1, pmCiC (plasma membrane citrate transporter) (Homo sapiens, UniProt P53007)", "T1 construct": "gene SLC25A1; His-tagged pmCiC expressed in Sf9 cells, solubilized in dodecylmaltoside and purified by Ni-NTA", "T1 sequence (P53007 14-311)": "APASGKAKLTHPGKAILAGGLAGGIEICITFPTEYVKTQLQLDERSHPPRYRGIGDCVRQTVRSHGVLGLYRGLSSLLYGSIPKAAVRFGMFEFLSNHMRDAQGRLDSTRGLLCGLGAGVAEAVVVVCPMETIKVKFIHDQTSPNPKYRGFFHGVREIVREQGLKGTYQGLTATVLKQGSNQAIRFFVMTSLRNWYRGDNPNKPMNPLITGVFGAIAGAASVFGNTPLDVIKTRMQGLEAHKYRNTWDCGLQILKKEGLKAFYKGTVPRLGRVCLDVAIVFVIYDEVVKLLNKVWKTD", "assay": "Trp fluorescence quenching titration of purified protein", "type": "binding"}
{"smiles": "O=C(O)CC(O)(CC(=O)O)C(=O)O", "note": "[citrate]", "values": [{"measurement": "Kd", "result": 16, "unit": "mM"}]}
